Measurements reported in US11613538B2, “Method of inhibiting or reducing a viral infection” (PTC Therapeutics, Inc., priority 2009, dated 2023).

Test system: hypoxia-induced VEGF production in HeLa cells
Assay: cells
Assay type: cell-based, human
Conditions: Homo sapiens, HeLa

SMILES	EC50
COCCOC(=O)N1CCc2c([nH]c3ccc(Cl)cc23)C1c1ccc(OCC2OCCO2)cc1 (stereo not drawn) [Compound 1042]	8 to 40 nM
C=COC(=O)N1CCc2c([nH]c3ccc(Cl)cc23)C1c1ccc(OCC2OCCO2)cc1 (stereo not drawn) [Compound 1043]	< 8 nM
C=CCOC(=O)N1CCc2c([nH]c3ccc(Cl)cc23)C1c1ccc(OCC2OCCO2)cc1 (stereo not drawn) [Compound 1044]	< 8 nM
C=CCCOC(=O)N1CCc2c([nH]c3ccc(Cl)cc23)C1c1ccc(OCC2OCCO2)cc1 (stereo not drawn) [Compound 1045]	< 8 nM
C=C(C)OC(=O)N1CCc2c([nH]c3ccc(Cl)cc23)C1c1ccc(OCC2OCCO2)cc1 (stereo not drawn) [Compound 1046]	8 to 40 nM
CC#CCOC(=O)N1CCc2c([nH]c3ccc(Cl)cc23)C1c1ccc(OCC2OCCO2)cc1 (stereo not drawn) [Compound 1047]	< 8 nM
C#CCOC(=O)N1CCc2c([nH]c3ccc(Cl)cc23)C1c1ccc(OCC2OCCO2)cc1 (stereo not drawn) [Compound 1048]	< 8 nM
C#CCCOC(=O)N1CCc2c([nH]c3ccc(Cl)cc23)C1c1ccc(OCC2OCCO2)cc1 (stereo not drawn) [Compound 1049]	< 8 nM
O=C(Oc1ccc(Cl)cc1)N1CCc2c([nH]c3ccc(Cl)cc23)C1c1ccc(OCC2OCCO2)cc1 (stereo not drawn) [Compound 1053]	< 8 nM
O=C(OCc1ccccc1)N1CCc2c([nH]c3ccc(Cl)cc23)C1c1ccc(OCC2OCCO2)cc1 (stereo not drawn) [Compound 1056]	< 8 nM
O=C(OCc1ccccc1Cl)N1CCc2c([nH]c3ccc(Cl)cc23)C1c1ccc(OCC2OCCO2)cc1 (stereo not drawn) [Compound 1057]	< 8 nM
O=C(OCc1ccccc1)N1CCc2c([nH]c3ccc(Cl)cc23)C1c1ccc(OCCCO)cc1 (stereo not drawn) [Compound 1059]	< 8 nM
C=CCOC(=O)N1CCc2c([nH]c3ccc(Cl)cc23)C1c1ccc(OCCCO)cc1 (stereo not drawn) [Compound 1060]	< 8 nM
CC(C)COC(=O)N1CCc2c([nH]c3ccc(Cl)cc23)C1c1ccc(OCCCO)cc1 (stereo not drawn) [Compound 1061]	< 8 nM
O=C(COc1ccc(C2c3[nH]c4ccc(Cl)cc4c3CCN2C(=O)Oc2ccc(F)cc2)cc1)NCCO (stereo not drawn) [Compound 1063]	8 to 40 nM
O=C(COc1ccc(C2c3[nH]c4ccc(Cl)cc4c3CCN2C(=O)Oc2ccc(F)cc2)cc1)N1CCN(CCO)CC1 (stereo not drawn) [Compound 1064]	8 to 40 nM
O=C(Oc1ccc(Cl)cc1)N1CCc2c([nH]c3ccc(Cl)cc23)[C@@H]1c1ccc(OC[C@H](O)CN2CCOCC2)cc1 [Compound 1070]	< 8 nM
O=C(Oc1ccc(Cl)cc1)N1CCc2c([nH]c3ccc(Cl)cc23)[C@@H]1c1ccc(OC[C@@H](O)CN2CCOCC2)cc1 [Compound 1071]	< 8 nM

SMILES	EC50
C=CCOC(=O)N1CCc2c([nH]c3ccc(Cl)cc23)C1c1ccc(OCCCN2CCN(C)CC2)cc1 (stereo not drawn) [Compound 1072]	< 8 nM
CCOC(=O)N1CCc2c([nH]c3ccc(Cl)cc23)C1c1ccc(OCC(O)Cn2nccn2)cc1 (stereo not drawn) [Compound 1073]	< 8 nM
CC(C)OC(=O)N1CCc2c([nH]c3ccc(Cl)cc23)C1c1ccc(OCCCO)cc1 (stereo not drawn) [Compound 1074]	< 8 nM
O=C(Oc1ccccc1)N1CCc2c([nH]c3ccc(Cl)cc23)C1c1ccc(OCCCN2CCOCC2)cc1 (stereo not drawn) [Compound 1075]	8 to 40 nM
CN1CCN(CCCOc2ccc(C3c4[nH]c5ccc(Cl)cc5c4CCN3C(=O)Oc3ccccc3)cc2)CC1 (stereo not drawn) [Compound 1076]	40 to 200 nM
C=CCOC(=O)N1CCc2c([nH]c3ccc(Cl)cc23)C1c1ccc(OCCCN2CCOCC2)cc1 (stereo not drawn) [Compound 1079]	< 8 nM
C=CCOC(=O)N1CCc2c([nH]c3ccc(Cl)cc23)C1c1ccc(OCCCn2ccnn2)cc1 (stereo not drawn) [Compound 1080]	< 8 nM
C=CCOC(=O)N1CCc2c([nH]c3ccc(Cl)cc23)C1c1ccc(OCCCn2nccn2)cc1 (stereo not drawn) [Compound 1081]	< 8 nM
COCCOC(=O)N1CCc2c([nH]c3ccc(Cl)cc23)C1c1ccc(OCCCn2ccnn2)cc1 (stereo not drawn) [Compound 1083]	8 to 40 nM
COCCOC(=O)N1CCc2c([nH]c3ccc(Cl)cc23)C1c1ccc(OCCCn2nccn2)cc1 (stereo not drawn) [Compound 1084]	8 to 40 nM
CCOC(=O)N1CCc2c([nH]c3ccc(Cl)cc23)C1c1ccc(OCC(O)CNC(=O)COC)cc1 (stereo not drawn) [Compound 1085]	< 8 nM
COc1cc(C2c3[nH]c4ccc(Cl)cc4c3CCN2C(=O)Oc2ccc(Cl)cc2)ccc1OCCN1CCOCC1 (stereo not drawn) [Compound 1092]	8 to 40 nM
COc1cc(C2c3[nH]c4ccc(Cl)cc4c3CCN2C(=O)Oc2ccc(Cl)cc2)ccc1OCCCN1CCOCC1 (stereo not drawn) [Compound 1093]	8 to 40 nM
COc1cc(C2c3[nH]c4ccc(Cl)cc4c3CCN2C(=O)Oc2ccc(Cl)cc2)ccc1OCCCCN1CCOCC1 (stereo not drawn) [Compound 1094]	8 to 40 nM
COc1ccc(C2c3[nH]c4ccc(Cl)cc4c3CCN2C(=O)Oc2ccc(Cl)cc2)cc1OCCN1CCOCC1 (stereo not drawn) [Compound 1095]	200 to 1000 nM
COc1ccc(C2c3[nH]c4ccc(Cl)cc4c3CCN2C(=O)Oc2ccc(Cl)cc2)cc1OCCCN1CCOCC1 (stereo not drawn) [Compound 1096]	200 to 1000 nM
COc1ccc(C2c3[nH]c4ccc(Cl)cc4c3CCN2C(=O)Oc2ccc(Cl)cc2)cc1OCCCCN1CCOCC1 (stereo not drawn) [Compound 1097]	40 to 200 nM
O=C(Oc1ccc(Cl)cc1)N1CCc2c([nH]c3ccc(Cl)cc23)C1c1ccc(OCCCN2CCC(CO)C2)cc1 (stereo not drawn) [Compound 1098]	8 to 40 nM
